In data set [1] the test system is SK-Mel-3 tumor-bearing NMRI nude mice. Put plainly: Tumor accumulation in the NMRI-SK-Me13 human xenograft mouse model. To be noted: after 96 hours. Type of data set: in vivo. As for the experimental part: (§1) After synthesis and purification, the compounds according to the invention are dissolved in a physiologically compatible medium and kept ready for injection. Organ distribution and tumor accumulation experiments were performed in B16/F1 tumor-bearing C57BL6 mice, and SK-Mel-3 tumor-bearing NMRI nude mice (15-22 g).
(§2) Murine B16/F1 and human SK-Mel-3 cells were ordered from ATCC. B16/F1 cells (0.5×10^6) are washed in buffer (preferably phosphate buffer), suspended and inoculated subcutaneously into C57BL6 mice, 100 μl, in the right rear flanks. Sk-Mel-3 cells (5×10^6) are washed in buffer and then inoculated subcutaneously into NMRI mice in Matrigel® (100 μl) in the right side of the trunk. After about 8-10 days, the animals develop palpable tumors with a surface area of about 30 mm^2. The distribution studies are performed after intravenous caudal vein administration of 3.7-5.5 MBq of the substances according to the invention in 50-100 μl of volume. At certain times after administration, the animals are sacrificed, organs and tumors are removed, optionally dabbed dry, weighed and measured for radioactive content (γ measurement) in a calibrator with the corresponding isotope standard. The results are depicted as % of the injected dose (ID)/g of tissue (Table 1).
A general note: Xenograft models place foreign cells or tissue in a host animal.

The next data set can be described thus: Lipophilicity. Type of data set: physicochemical. To be noted: in words.
The test system of data set [2] is B16/F1 tumor-bearing C57BL6 mice. Put plainly: Tissue concentration of radioiodinated benzamides in the C57BL6-B16/F1 mouse model (organ distribution and tumor accumulation). The class given is in vivo. The note with it: for Blood tissue concentration / Liver tissue concentration / Tumor tissue concentration: n = 3. Here is the method:
as §1, §2

For a further data set, the system named is thyroid gland. Put plainly: Thyroid gland accumulation as indication of dehalogenation in vivo. The source says: Another drawback of the most similar compounds of the prior art is that the compounds of Eisenhut et al. dehalogenate more quickly in the body than the compounds according to the invention.
The thyroid gland accumulation of BA40 and BA42, an indication of dehalogenation in vivo, is increased by a factor of 10-15 compared to the compounds according to the invention.

[3] abbreviates: 1 hour after intravenous administration.
The mark [4] stands for this setting: 5 hours after intravenous administration.
Where [5] appears, read: 24 hours after intravenous administration.
Setting [6] is: 6 h after intravenous administration.

For the molecule `CCN(CC)CCNC(=O)c1cc(I)c(NC(=O)c2ccc3c(c2)OCO3)cc1OC` [BA52, Benzo[1,3]dioxole-5-carboxylic acid [4-(2-diethylamino-ethylcarbamoyl)-2-iodo-5-methoxy-phenyl]-amide], the “Accumulation in the tumor” value in data set [1] is listed as “at least 13 % of the injected dose per gram tissue”. The “Lipophilicity compared with the prior art compounds” value in the data set “Lipophilicity” is “higher lipophilicity”. Besides, in data set [2] (setting [3]), the Blood tissue concentration is 1.46 % Injected Dose (ID)/g of Tissue, the Liver tissue concentration is listed as 19.11 % Injected Dose (ID)/g of Tissue and the Tumor tissue concentration is given as 14.83 % Injected Dose (ID)/g of Tissue. In data set [2] (setting [4]), the Blood tissue concentration is recorded as 0.69 % Injected Dose (ID)/g of Tissue, the Liver tissue concentration is 6.53 % Injected Dose (ID)/g of Tissue and the Tumor tissue concentration is listed as 22.69 % Injected Dose (ID)/g of Tissue. In addition, in data set [2] (setting [5]), the Blood tissue concentration is on record as 0.05 % Injected Dose (ID)/g of Tissue, the Liver tissue concentration was 0.49 % Injected Dose (ID)/g of Tissue and the Tumor tissue concentration was 18.82 % Injected Dose (ID)/g of Tissue. Further, in data set [2] (after 6 and 24 hours, in words), the “Blood accumulation compared with BA42” value is recorded as “considerably lower” and the “Liver concentration compared with BA42” value is “considerably lower”. Also, in data set [2] (in words), the “Blood accumulation compared with the closest prior art (compound of Eisenhut et al. with NH-Ac)” value is given as “considerably less”; the “Retardation in the melanoma tissue” value is “extended retardation”; the “Retention in the tumor compared with BA40 and BA42” value is recorded as “considerably longer”; the “Tumor concentration compared with BA40 and BA42” value is reported as “comparable”. Moreover, the “Stability of the bonded radioisotope I-131 (dehalogenation in vivo)” value (from here on “Stability … (dehalogenation in vivo)”) in the data set with thyroid gland was “more stable”.

In the case of `CCN(CC)CCNC(=O)c1cc(I)c(NC(=O)c2ccccc2)cc1OC` [BA91], the Blood tissue concentration in data set [2] (setting [3]) is 1.06 % Injected Dose (ID)/g of Tissue; in data set [2] (setting [6]) it was 0.97 % Injected Dose (ID)/g of Tissue; in data set [2] (setting [5]), 0.22 % Injected Dose (ID)/g of Tissue. Besides, the Liver tissue concentration is on record as 12.68 % Injected Dose (ID)/g of Tissue in data set [2] (setting [3]), 3.63 % Injected Dose (ID)/g of Tissue in data set [2] (setting [6]) and 0.76 % Injected Dose (ID)/g of Tissue in data set [2] (setting [5]). Besides, the Tumor tissue concentration is 9.68 % Injected Dose (ID)/g of Tissue in data set [2] (setting [3]), 16.72 % Injected Dose (ID)/g of Tissue in data set [2] (setting [6]) and 13.83 % Injected Dose (ID)/g of Tissue in data set [2] (setting [5]). For the same molecule, the “Liver concentration compared with BA42” value in data set [2] (after 6 and 24 hours, in words) is on record as “considerably lower”. The “Blood accumulation compared with the closest prior art (compound of Eisenhut et al. with NH-Ac)” value in data set [2] (in words) is recorded as “considerably less”. Further, the “Stability … (dehalogenation in vivo)” value in the data set with thyroid gland is reported as “more stable”.

`CCN(CC)CCNC(=O)c1cc(I)c(NC(=O)c2ccc(Cl)cc2)cc1OC` [BA93]: in data set [2] (setting [3]), the Blood tissue concentration was 1.30 % Injected Dose (ID)/g of Tissue, the Liver tissue concentration is 13.71 % Injected Dose (ID)/g of Tissue and the Tumor tissue concentration was 10.73 % Injected Dose (ID)/g of Tissue. In addition, in data set [2] (setting [6]), the Blood tissue concentration is recorded as 0.82 % Injected Dose (ID)/g of Tissue, the Liver tissue concentration is 5.81 % Injected Dose (ID)/g of Tissue and the Tumor tissue concentration is listed as 21.67 % Injected Dose (ID)/g of Tissue. Besides, in data set [2] (setting [5]), the Blood tissue concentration is 0.22 % Injected Dose (ID)/g of Tissue, the Liver tissue concentration is on record as 1.18 % Injected Dose (ID)/g of Tissue and the Tumor tissue concentration is 23.46 % Injected Dose (ID)/g of Tissue. Besides, the “Liver concentration compared with BA42” value in data set [2] (after 6 and 24 hours, in words) is reported as “considerably lower”. In addition, in data set [2] (in words), the “Blood accumulation compared with the closest prior art (compound of Eisenhut et al. with NH-Ac)” value is “considerably less” and the “Retardation in the melanoma tissue” value is “extended retardation”. Also, the “Stability … (dehalogenation in vivo)” value with thyroid gland is on record as “more stable”.

Regarding `CCN(CC)CCNC(=O)c1cc(I)c(NC(=O)c2ccc(OC)cc2)cc1OC` [BA95], in data set [2] (setting [3]), the Blood tissue concentration is 1.26 % Injected Dose (ID)/g of Tissue, the Liver tissue concentration was 16.35 % Injected Dose (ID)/g of Tissue and the Tumor tissue concentration is 17.45 % Injected Dose (ID)/g of Tissue. Moreover, in data set [2] (setting [4]), the Blood tissue concentration is 0.76 % Injected Dose (ID)/g of Tissue, the Liver tissue concentration is reported as 8.54 % Injected Dose (ID)/g of Tissue and the Tumor tissue concentration is 14.83 % Injected Dose (ID)/g of Tissue. Also, in data set [2] (setting [5]), the Blood tissue concentration was 0.07 % Injected Dose (ID)/g of Tissue, the Liver tissue concentration is 0.75 % Injected Dose (ID)/g of Tissue and the Tumor tissue concentration is recorded as 29.69 % Injected Dose (ID)/g of Tissue. Further, the “Liver concentration compared with BA42” value in data set [2] (after 6 and 24 hours, in words) is “considerably lower”. In addition, in data set [2] (in words), the “Blood accumulation compared with the closest prior art (compound of Eisenhut et al. with NH-Ac)” value is reported as “considerably less” and the “Retardation in the melanoma tissue” value is “extended retardation”. Also, in the data set on thyroid gland, the “Stability … (dehalogenation in vivo)” value was “more stable”.

Turning to `CCN(CC)CCNC(=O)c1cc(I)c(NC(=O)c2ccc(F)cc2)cc1OC` [BA100], in data set [2] (setting [3]), the Blood tissue concentration was 1.21 % Injected Dose (ID)/g of Tissue, the Liver tissue concentration is 15.49 % Injected Dose (ID)/g of Tissue and the Tumor tissue concentration was 25.51 % Injected Dose (ID)/g of Tissue. Further, in data set [2] (setting [6]), the Blood tissue concentration is 0.70 % Injected Dose (ID)/g of Tissue, the Liver tissue concentration is reported as 4.64 % Injected Dose (ID)/g of Tissue and the Tumor tissue concentration was 28.10 % Injected Dose (ID)/g of Tissue. For the same molecule, in data set [2] (setting [5]), the Blood tissue concentration is recorded as 0.07 % Injected Dose (ID)/g of Tissue, the Liver tissue concentration is listed as 0.76 % Injected Dose (ID)/g of Tissue and the Tumor tissue concentration is reported as 31.66 % Injected Dose (ID)/g of Tissue. In data set [2] (after 6 and 24 hours, in words), the “Liver concentration compared with BA42” value is listed as “considerably lower”. Moreover, in data set [2] (in words), the “Blood accumulation compared with the closest prior art (compound of Eisenhut et al. with NH-Ac)” value was “considerably less” and the “Retardation in the melanoma tissue” value is “extended retardation”. Further, in the data set on thyroid gland, the “Stability … (dehalogenation in vivo)” value is recorded as “more stable”.

Source of the values: patent US7850948B2, “Radiohalogenated benzamide derivatives and their use in tumor diagnosis and tumor therapy” (Bayer Schering Pharma AG, priority 2004, dated 2010).
